From the CheMixHub viscosity set

Test: xn = mol fraction of the nth substance listed

Clc1cccc2ccccc12 + C=Cc1ccccc1
viscosity [mPa·s], 101.33 kPa
Details | x2 = 0.1076 | x2 = 0.2005 | x2 = 0.301 | x2 = 0.4032 | x2 = 0.5003 | x2 = 0.6015 | x2 = 0.684 | x2 = 0.7992 | x2 = 0.9033
298.15 K | 2.356 | 2.07 | 1.778 | 1.549 | 1.379 | 1.216 | 1.108 | 0.9675 | 0.8331
303.15 K | 2.103 | 1.864 | 1.617 | 1.412 | 1.259 | 1.115 | 1.013 | 0.91 | 0.8013
308.15 K | 1.884 | 1.677 | 1.47 | 1.283 | 1.152 | 1.036 | 0.9455 | 0.8446 | 0.7413

CCOP(=O)(OCC)OCC + CN(C)C=O
298.15 K, 101.3 kPa
Details | viscosity [mPa·s]
x1 = 0.1003 | 0.883
x1 = 0.2008 | 0.967
x1 = 0.298 | 1.044
x1 = 0.398 | 1.123
x1 = 0.4979 | 1.195
x1 = 0.6076 | 1.268
x1 = 0.6995 | 1.329
x1 = 0.7969 | 1.389
x1 = 0.8973 | 1.447

CC1=CCC(=C(C)C)CC1 + Brc1ccccc1
viscosity [mPa·s], 101 kPa
Details | x1 = 0.0687 | x1 = 0.1424 | x1 = 0.2216 | x1 = 0.307 | x1 = 0.3992 | x1 = 0.4992 | x1 = 0.6079 | x1 = 0.7266 | x1 = 0.8567
303.15 K | 0.993 | 1 | 1.011 | 1.023 | 1.032 | 1.036 | 1.033 | 1.023 | 1.01
308.15 K | 0.942 | 0.948 | 0.957 | 0.967 | 0.975 | 0.979 | 0.973 | 0.962 | 0.947
313.15 K | 0.893 | 0.897 | 0.905 | 0.913 | 0.919 | 0.922 | 0.915 | 0.903 | 0.887

COC(C)(C)C + CCCCO
viscosity [mPa·s], 101 kPa
Details | x1 = 0.1006 | x1 = 0.102 | x1 = 0.2 | x1 = 0.2998 | x1 = 0.3995 | x1 = 0.5111 | x1 = 0.6008 | x1 = 0.6996 | x1 = 0.7994 | x1 = 0.9005
298.15 K | – | 1.94 | 1.48 | 1.14 | 0.902 | 0.719 | 0.613 | 0.529 | 0.46 | 0.401
303.15 K | 1.695 | – | – | – | – | – | – | – | – | –

COCCOCCOCCOCCOC + CCC(C)O
viscosity [mPa·s]
Details | 298.15 K | 308.15 K | 318.15 K | 323.15 K
101 kPa, x1 = 0.0018 | 3.082 | 2.157 | 1.554 | –
101 kPa, x1 = 0.0046 | 3.032 | 2.132 | 1.544 | –
101 kPa, x1 = 0.0146 | 2.91 | 2.069 | 1.515 | –
101 kPa, x1 = 0.0257 | 2.787 | 2.024 | 1.493 | –
101 kPa, x1 = 0.0738 | 2.439 | 1.834 | 1.408 | –
101 kPa, x1 = 0.0988 | – | 1.777 | 1.368 | –
101.3 kPa, x2 = 0.5011 | – | – | – | 1.495
101.3 kPa, x2 = 0.6997 | – | – | 1.445 | –
